ChEMBL document CHEMBL1201862, “PubChem BioAssay data set” (2004)
Activity calls are given as the source filed them.

Columns and labels:
[1] = target: T1, Calpain-2 catalytic subunit (Sus scrofa, UniProt P43367); test: pig calpain II inhibitor potency, dose response, biochemical, fluorogenic peptide substrate (AID 1420); type: functional
T1 sequence (P43367 whole entry): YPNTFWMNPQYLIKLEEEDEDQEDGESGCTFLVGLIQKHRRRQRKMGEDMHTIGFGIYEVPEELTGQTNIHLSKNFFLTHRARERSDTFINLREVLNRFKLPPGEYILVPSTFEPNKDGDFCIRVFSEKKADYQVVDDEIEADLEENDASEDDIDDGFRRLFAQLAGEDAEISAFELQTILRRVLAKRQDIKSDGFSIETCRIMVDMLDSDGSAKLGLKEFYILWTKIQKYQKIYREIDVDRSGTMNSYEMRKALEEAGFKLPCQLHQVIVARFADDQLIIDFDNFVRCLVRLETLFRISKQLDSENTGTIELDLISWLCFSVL

[2] = target: T2, Carboxy-terminal domain RNA polymerase II polypeptide A small phosphatase 1 (Homo sapiens, UniProt Q9GZU7); test: inhibitors of CTDSP1, concentration-response testing, biochemical assay, absorbance-based, actives from ultra-high-throughput screening (AID 540297); type: functional
T2 sequence (Q9GZU7 whole entry): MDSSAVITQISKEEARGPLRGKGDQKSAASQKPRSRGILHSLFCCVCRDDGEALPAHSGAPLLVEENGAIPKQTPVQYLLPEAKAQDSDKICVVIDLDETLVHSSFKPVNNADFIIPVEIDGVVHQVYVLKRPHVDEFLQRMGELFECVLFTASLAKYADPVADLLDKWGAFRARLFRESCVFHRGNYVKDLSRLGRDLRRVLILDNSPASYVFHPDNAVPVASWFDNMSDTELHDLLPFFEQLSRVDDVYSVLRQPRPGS

[3] = target: Induced myeloid leukemia cell differentiation protein Mcl-1 (Homo sapiens, UniProt Q07820); type: functional
[4] = target: T3, DNA repair protein RAD52 homolog (Homo sapiens, UniProt P43351); type: functional, biochemical
T3 sequence (P43351 whole entry): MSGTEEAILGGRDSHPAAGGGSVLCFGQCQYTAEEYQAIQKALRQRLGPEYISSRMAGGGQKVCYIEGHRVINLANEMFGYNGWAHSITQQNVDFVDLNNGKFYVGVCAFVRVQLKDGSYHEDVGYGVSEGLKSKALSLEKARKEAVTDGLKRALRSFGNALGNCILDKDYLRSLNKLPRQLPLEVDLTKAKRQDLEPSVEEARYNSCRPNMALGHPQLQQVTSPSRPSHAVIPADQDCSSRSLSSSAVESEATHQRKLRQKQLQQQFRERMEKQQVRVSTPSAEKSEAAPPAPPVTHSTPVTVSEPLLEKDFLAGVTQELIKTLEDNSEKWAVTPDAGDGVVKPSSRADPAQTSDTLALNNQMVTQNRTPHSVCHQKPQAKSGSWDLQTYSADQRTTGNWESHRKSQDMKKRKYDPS

[5] = target: T4, RNA-binding protein pos-1 (Caenorhabditis elegans, UniProt G5EF15); test: inhibitors of POS-1/mex-3 RNA binding, dose response, biochemical, fluorescence polarization (AID 1964);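 further: purified POS-1 fused to maltose binding protein made in E. coli; potency of compounds blocking POS-1 binding to fluorescent RNA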
T4 sequence (G5EF15 whole entry): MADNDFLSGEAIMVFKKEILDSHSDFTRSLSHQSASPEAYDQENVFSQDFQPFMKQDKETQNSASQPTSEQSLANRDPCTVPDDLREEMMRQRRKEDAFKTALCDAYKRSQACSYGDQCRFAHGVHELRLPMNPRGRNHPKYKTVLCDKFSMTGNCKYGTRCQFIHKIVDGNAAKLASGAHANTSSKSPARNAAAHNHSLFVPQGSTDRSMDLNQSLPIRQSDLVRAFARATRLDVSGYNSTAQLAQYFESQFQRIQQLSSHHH

[6] = target: T5, Zinc finger protein mex-5 (Caenorhabditis elegans, UniProt Q9XUB2); test: MEX-5/TCR-2 RNA interaction inhibitors, dose response, biochemical, C. elegans, fluorescence polarization (AID 1960)
T5 sequence (Q9XUB2 whole entry): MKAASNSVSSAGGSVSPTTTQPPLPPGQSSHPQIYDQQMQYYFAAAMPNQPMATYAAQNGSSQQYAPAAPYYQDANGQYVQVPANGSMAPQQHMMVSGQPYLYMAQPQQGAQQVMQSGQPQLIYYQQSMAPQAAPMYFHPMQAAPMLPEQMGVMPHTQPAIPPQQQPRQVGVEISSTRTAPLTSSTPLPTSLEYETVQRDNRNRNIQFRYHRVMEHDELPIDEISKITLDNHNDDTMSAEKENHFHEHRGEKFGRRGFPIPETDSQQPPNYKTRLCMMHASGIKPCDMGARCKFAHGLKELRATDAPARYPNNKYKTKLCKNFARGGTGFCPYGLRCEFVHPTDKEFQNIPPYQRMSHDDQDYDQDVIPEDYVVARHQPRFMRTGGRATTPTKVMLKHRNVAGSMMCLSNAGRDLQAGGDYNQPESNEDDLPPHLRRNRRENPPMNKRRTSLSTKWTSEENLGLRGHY

cells = type: functional
[7] = THP-1 cell cytotoxicity, dose response, cytotoxicity control for non-replicating M. tuberculosis project (AID 489025); type: functional
Streptococcus = test: Group A Streptococcus viability loss, dose response, counter-screen for streptokinase expression inhibitor project, luminescence, BacTiterGlo (AID 1915); type: functional, organism-based;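 further: potency for reduction of bacterial viability or growth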
Streptokinase A = target: T6, Streptokinase A (Streptococcus pyogenes serotype M1, UniProt P10520); test: S. pyogenes streptokinase expression inhibitors, potency, dose response, plasminogen activation absorbance, OD405 (AID 1914); type: functional, Streptococcus pyogenes M1 GAS;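 further: secreted streptokinase activity via plasminogen activation per viability signal from cell pellet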
T6 sequence (P10520 whole entry): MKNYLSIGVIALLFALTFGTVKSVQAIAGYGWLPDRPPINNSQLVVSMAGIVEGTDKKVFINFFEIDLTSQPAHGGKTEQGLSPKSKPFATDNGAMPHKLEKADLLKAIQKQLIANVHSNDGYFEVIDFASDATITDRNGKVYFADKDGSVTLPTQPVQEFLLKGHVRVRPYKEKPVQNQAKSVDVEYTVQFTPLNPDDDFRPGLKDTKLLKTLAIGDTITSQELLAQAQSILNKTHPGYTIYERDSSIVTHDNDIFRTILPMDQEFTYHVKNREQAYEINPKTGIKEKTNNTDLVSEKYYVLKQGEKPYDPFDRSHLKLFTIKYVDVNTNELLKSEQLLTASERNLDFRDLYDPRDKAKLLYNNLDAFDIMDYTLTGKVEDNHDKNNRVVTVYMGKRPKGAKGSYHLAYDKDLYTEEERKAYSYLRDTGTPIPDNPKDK

[8] = tested on: Streptococcus sp. 'group A'; test: growth inhibition of control SK(-) GAS strain, dose response, counter-screen for streptokinase expression inhibitor project, luminescence, kanamycin, BacTiterGlo, confirmation (AID 1900); type: functional, organism-based
Nonstructural protein 1 = Nonstructural protein 1 (Influenza A virus, UniProt Q194T2); type: functional, Influenza A virus (A/California/07/2009(H1N1))
[9] = P. falciparum ATP4 D1247Y mutant growth inhibitors, dose response, NITD609-resistant line, SYBR Green, dry powder (AID 1159571); type: functional, cell-based;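 further: parasites synchronized at ring stage by sorbitol before testing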
[10] = P. falciparum 3D7-ScDHODH growth inhibitors, dose response, SYBR Green, dry powder samples (AID 1159570); type: functional, cell-based;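 further: parasite growth measured after 72 hours of compound exposure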
[11] = P. falciparum Dd2 growth inhibitors, dose response, SYBR Green, dry powder samples (AID 1159566); type: functional, cell-based;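 further: potency for growth inhibition with lower SYBR green DNA signal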
[12] = P. falciparum Dd2 growth inhibitors, dose response, SYBR Green, cherry-picked samples (AID 1159567); type: functional, cell-based
H9c2 = test: cells; type: functional, cell-based; details: Rattus norvegicus, H9c2, Myocardium;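 further: confirmatory concentration-response retest of ultra-high-throughput screening hits for modulation of myocardial damage; cell death induced by hydrogen peroxide oxidative stress; compound pretreatment for 60 min then peroxide exposure for 2 h; potency is for protecting the cells against peroxide damage rather than for killing them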
[13] = target: T7, Rac GTPase-activating protein 1 (Homo sapiens, UniProt Q9H0H5); test: MgcRacGAP GTPase-activating activity inhibitors, confirmation, biochemical, ADP Hunter fluorescence, primary and confirmatory (AID 624330); type: functional
T7 sequence (Q9H0H5 whole entry): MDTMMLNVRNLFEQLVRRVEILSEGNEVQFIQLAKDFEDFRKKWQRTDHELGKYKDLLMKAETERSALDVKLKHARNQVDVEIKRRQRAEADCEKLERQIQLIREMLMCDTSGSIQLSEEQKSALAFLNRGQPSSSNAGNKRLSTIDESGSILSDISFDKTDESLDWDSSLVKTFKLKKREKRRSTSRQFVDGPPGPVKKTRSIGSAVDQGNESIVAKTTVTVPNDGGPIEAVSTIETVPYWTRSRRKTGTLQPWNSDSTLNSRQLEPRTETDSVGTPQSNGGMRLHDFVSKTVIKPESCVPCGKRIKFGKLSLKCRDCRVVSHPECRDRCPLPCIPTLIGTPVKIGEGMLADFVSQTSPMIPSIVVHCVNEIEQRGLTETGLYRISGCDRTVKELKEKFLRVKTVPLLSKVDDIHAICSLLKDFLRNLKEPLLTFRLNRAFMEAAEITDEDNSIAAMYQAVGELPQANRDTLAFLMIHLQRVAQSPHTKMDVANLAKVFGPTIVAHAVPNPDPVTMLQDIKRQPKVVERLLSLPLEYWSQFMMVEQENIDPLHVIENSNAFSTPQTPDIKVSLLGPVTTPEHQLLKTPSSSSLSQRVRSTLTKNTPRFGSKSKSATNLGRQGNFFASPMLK

[14] = target: T8, Polyadenylate-binding protein 1 (Homo sapiens, UniProt P11940); test: PABP1 MLLE–PAM2 binding inhibitor potency, dose response, biochemical, fluorescence polarization, FITC-PAM2 peptide (AID 602259); type: functional; details: read-out: IC50_Mean
[15] = target: T8, Polyadenylate-binding protein 1; test: PABP1 MLLE–PAM2 interaction inhibitors, dose response, miRNA deadenylation inhibitor project, biochemical, fluorescence polarization, Cy5-PAM2 peptide, secondary (AID 602260); type: functional; details: read-out: IC50_Mean
[16] = target: FAD-linked sulfhydryl oxidase ALR (Homo sapiens, UniProt P55789); test: inhibitors of human ALR sulfhydryl oxidase, dose response, biochemical, H2O2 detection, luminescence, cherry-pick (AID 493248)
Sequence of FAD-linked sulfhydryl oxidase ALR (P55789 whole entry): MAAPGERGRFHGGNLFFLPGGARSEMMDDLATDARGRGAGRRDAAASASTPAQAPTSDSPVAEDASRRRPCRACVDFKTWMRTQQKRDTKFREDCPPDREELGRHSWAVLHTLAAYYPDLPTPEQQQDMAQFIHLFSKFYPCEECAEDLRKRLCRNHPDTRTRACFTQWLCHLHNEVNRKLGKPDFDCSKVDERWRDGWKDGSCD

Sequence of Induced myeloid leukemia cell differentiation protein Mcl-1 (Q07820 whole entry): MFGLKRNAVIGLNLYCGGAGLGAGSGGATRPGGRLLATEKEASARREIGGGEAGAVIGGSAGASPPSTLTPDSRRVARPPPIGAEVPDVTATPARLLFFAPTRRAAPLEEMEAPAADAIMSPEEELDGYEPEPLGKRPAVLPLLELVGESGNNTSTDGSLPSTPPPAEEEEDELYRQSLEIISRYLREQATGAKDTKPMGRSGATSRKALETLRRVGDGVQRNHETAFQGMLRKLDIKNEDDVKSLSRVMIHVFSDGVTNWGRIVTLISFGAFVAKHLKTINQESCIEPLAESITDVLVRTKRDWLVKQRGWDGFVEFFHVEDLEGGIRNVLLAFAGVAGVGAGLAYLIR
T8 sequence (P11940 whole entry): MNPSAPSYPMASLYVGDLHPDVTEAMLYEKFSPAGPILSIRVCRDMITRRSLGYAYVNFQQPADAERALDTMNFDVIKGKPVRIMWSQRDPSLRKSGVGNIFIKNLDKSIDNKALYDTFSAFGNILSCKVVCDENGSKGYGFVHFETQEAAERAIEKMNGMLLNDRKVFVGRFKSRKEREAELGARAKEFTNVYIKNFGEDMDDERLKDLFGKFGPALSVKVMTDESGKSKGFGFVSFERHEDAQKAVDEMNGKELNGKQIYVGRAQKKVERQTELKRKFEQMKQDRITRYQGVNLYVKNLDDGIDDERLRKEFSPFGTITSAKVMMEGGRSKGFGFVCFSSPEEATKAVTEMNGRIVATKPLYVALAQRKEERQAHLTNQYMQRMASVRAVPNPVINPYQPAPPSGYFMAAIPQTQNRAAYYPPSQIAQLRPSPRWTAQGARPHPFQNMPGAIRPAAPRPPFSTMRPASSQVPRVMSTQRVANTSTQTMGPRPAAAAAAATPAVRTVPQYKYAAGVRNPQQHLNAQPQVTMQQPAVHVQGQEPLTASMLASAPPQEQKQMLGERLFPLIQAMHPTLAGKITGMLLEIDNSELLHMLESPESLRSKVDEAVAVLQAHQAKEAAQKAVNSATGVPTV
Sequence of Nonstructural protein 1 (Q194T2 whole entry): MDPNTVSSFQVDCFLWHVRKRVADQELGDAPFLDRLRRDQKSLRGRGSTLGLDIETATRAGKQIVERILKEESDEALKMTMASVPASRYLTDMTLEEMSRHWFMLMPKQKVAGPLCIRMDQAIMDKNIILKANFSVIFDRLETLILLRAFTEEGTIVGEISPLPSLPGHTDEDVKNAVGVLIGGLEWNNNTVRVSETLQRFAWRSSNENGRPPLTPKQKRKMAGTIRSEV

CC(C)/N=C(\S)NN=C1CCCCCCCCCCC1
IC50 [1]: 1.04 µM (not active)

O=C(CSc1nnc(COc2ccccc2Cl)o1)NC(=O)NCc1ccco1
IC50 [2]: 5.93 µM (active) | IC50 [3]: 6.9 µM (active)

CCN(CC)CCN(C(=O)c1ccc(N2C(=O)CCC2=O)cc1)c1nc2cc3c(cc2s1)OCCO3
AC50 [4]: 21.9 µM (active)

CCn1c(C)nc2cc(N)ccc21
EC50 [5]: 261 µM (active) | EC50 [6]: 4.59 µM (active) | AC50 [4]: 5.49 µM (active)

N#Cc1ccc(-c2ccc(OCC(=O)Nc3cccnc3)cc2)cc1
IC50 (cells): 1.63 µM (active) | CC50 [7]: 10.8 µM (active)

O=C(OCC(=O)N1c2ccccc2Sc2ccccc21)c1ccc[n+]([O-])c1
IC50 [1]: 1.66 µM (not active)

O=C1c2cccc3cccc(c23)C(=O)N1CCN1CCN(C(=S)Nc2ccc(Cl)cc2)CC1
IC50 [1]: 22.7 µM (not active)

Cc1cccc(Oc2ccc(Cl)cc2N)c1
IC50 [1]: > 50 µM (not active)

CC1Oc2cc3c(-c4c(O)cc(O)c5c(O)c6c(cc45)OC(C)C(C)C6=O)c(O)cc(O)c3c(O)c2C(=O)C1C (stereo unspecified)
IC50 [3]: 2.15 µM (active) | EC50 (Streptococcus): 967 nM (active) | EC50 (Streptokinase A): 1.74 µM (active) | EC50 [8]: 324 nM (active) | IC50 (Nonstructural protein 1): 29.4 µM (active)

C[C@@H]1CN([C@H](C)CO)S(=O)(=O)c2ccc(C#Cc3ccccc3F)cc2O[C@H]1CN(C)C(=O)c1ccc2c(c1)OCO2
AC50 [9]: 925 nM (active) | AC50 [10]: 1.61 µM (active) | AC50 [11]: 1.18 µM (active) | AC50 [12]: 1.6 µM (active) | IC50 (H9c2): > 79 µM (inactive)

O=[N+]([O-])c1cc(Br)c(O)c(/C=N/Nc2nc3ccccc3s2)c1
IC50 [3]: > 54 µM (active) | EC50 (Streptococcus): 1690 nM (active) | EC50 [8]: 1590 nM (active)

Oc1ccc(/C=N/n2cc(-c3ccccc3)nc2S)cc1
IC50 [13]: 101 µM (active) | IC50 [14]: > 66 µM (inactive) | IC50 [15]: > 66 µM (inactive) | IC50 [3]: 16.5 µM (active) | AC50 [16]: 860 nM (active)

CCN(CC)CCN(C(=O)c1ccc2c(c1)CCCC2)c1nc2c(OC)cccc2s1
AC50 [4]: 24.3 µM (active)

CCN(CC)c1ccc(/C=N/N2CCN(Cc3ccccc3)CC2)cc1
IC50 [13]: 78.7 µM (active) | IC50 [3]: 11.5 µM (not active)

O=C(Nc1ccccc1)N1CCCCN2[C@H](CO)[C@H](c3ccc(C#Cc4cccnc4)cc3)[C@@H]2C1
AC50 [9]: 157 nM (active) | AC50 [10]: 0.15 µM (active) | AC50 [11]: 0.165 µM (active) | AC50 [12]: 0.676 µM (active)

C[C@H](CO)N1C[C@H](C)[C@@H](CN(C)C(=O)Nc2cccc3ccccc23)Oc2ccc(NC(=O)Cc3cn(C)c4ccccc34)cc2C1=O
AC50 [9]: 1560 nM (active) | AC50 [10]: 2.16 µM (active) | AC50 [11]: 1.38 µM (active) | AC50 [12]: 2.34 µM (active)

C[C@@H]1CN([C@@H](C)CO)C(=O)c2cccc(NC(=O)Nc3ccccc3)c2O[C@@H]1CN(C)C(=O)Nc1ccc(F)cc1
AC50 [9]: 372 nM (active) | AC50 [10]: 0.65 µM (active) | AC50 [11]: 0.35 µM (active) | AC50 [12]: 0.392 µM (active)

COc1cc2c3cc1Oc1c(OC)c(OC)cc4c1[C@H](Cc1ccc(cc1)Oc1cc(ccc1O)C[C@H]3N(C)CC2)N(C)CC4 [AROMOLINE]
AC50 [4]: 9.29 µM (active)
